Source: patent US20250320206A1, “STAT6 DEGRADERS” (Gilead Sciences, Inc., priority 2024, published 2025)

What follows are compounds tested against T1, STAT6 (Homo sapiens, UniProt P42226) (assay: Stat6 Degrader Assay (HiBiT based, HeLa LgBiT clone 4.14)). Conditions: HeLa LgBiT clone 4.14 HiBiT-STAT6, 4-24 h incubation; read-out: STAT6 degradation Emax.
T1 construct: These cells express endogenous STAT6; host or cells: HeLa LgBiT clone 4.14
T1 sequence (P42226 1-847): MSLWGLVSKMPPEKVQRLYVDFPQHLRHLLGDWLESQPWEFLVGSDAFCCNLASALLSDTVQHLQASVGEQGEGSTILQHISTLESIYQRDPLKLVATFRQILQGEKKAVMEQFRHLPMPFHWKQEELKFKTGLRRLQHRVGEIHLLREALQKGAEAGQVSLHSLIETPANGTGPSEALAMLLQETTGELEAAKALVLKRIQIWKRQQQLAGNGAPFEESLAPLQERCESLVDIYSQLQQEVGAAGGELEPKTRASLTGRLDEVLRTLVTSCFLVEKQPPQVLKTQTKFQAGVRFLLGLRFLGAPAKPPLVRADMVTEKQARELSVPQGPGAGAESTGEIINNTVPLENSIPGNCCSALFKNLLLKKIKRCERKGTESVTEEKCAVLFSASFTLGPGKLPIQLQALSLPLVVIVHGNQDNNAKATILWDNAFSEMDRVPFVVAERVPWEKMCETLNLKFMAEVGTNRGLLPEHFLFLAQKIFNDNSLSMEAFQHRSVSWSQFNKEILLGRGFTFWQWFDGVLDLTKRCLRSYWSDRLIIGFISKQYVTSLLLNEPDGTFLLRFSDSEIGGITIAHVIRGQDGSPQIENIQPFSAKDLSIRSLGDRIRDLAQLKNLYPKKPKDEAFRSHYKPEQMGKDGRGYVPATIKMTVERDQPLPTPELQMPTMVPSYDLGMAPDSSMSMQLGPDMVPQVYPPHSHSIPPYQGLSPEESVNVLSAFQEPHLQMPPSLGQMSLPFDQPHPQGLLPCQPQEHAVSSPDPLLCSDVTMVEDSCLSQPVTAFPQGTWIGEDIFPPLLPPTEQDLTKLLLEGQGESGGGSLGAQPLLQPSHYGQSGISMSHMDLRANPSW
Format: cell-based
Method: This was a HiBit based assay. A HeLa cell line stably transfected with a small protein, LgBit (Large Bit) was obtained from Promega. These cells express endogenous STAT6. A small 11 amino acid gene sequence (HiBiT) was inserted in the STAT6 gene using CRISPR technology. Once STAT6 protein is expressed in the cells, the HiBiT sequence will bind the LgBit in the cells resulting in a functional NanoBiT protein, giving a luminescent tag to STAT6, see FIG. 2.
Single cell clones were prepared and the clone 4.14 was selected for the assay based on that clone showing high luminescence, high STAT6 phosphorylation upon stimulation with IL-4, and inhibition of luminescence when cells were treated with STAT6 siRNA.
HeLa LgBiT clone 4.14 cells were suspended in DMEM with 10% FCS, 1% Pen/Strep, Na-pyrovate and Hygromycin B, at a concentration of 1.25*105 cells pr mL. 5000 cells were added pr well of a 384 well plate and 20 nL of compound was added by Echo® liquid handler. NN6394A (terfenadine, a toxic compound) was added to control wells at 50 μM concentration to establish the assay window. In these wells the cells are dead which equals 100% degradation of STAT6.
After 4-24 h of incubation at 37° C. under 5% CO2/95% air, 5 μL substrate (Nano-GLO®) was added to the wells and the plates were centrifuged and incubated for 0.5 h.
The luminescence in the wells as a measure of non-degraded STAT6 was measured in a plate reader (BMG Pherastar FSX).
The dose-response curves for Examples 3u208, 3u246, 3u118, 3u119, 3u120, and 3u74 are shown in FIG. 1 (where percent degradation is plotted vs. test compound concentration in M on a log-scale).
CNc1cc(=O)n(-c2ccnc3c2cc([C@H](C)N2CC=C(c4c(C)cc(C(=O)N5CCC(CN6CCN(c7ccc8c(c7)n(C7CCC(=O)NC7=O)c(=O)n8C)CC6)CC5)cc4F)CC2)n3C)cc1F (stereo partly drawn) [Example 3u272, 3-(6-(4-((1-(3-fluoro-4-(1-((S)-1-(4-(5-fluoro-4-(methylamino)-2-oxopyridin-1 (2H)-yl)-1-methyl-1H-pyrrolo[2,3-b]pyridin-2-yl)ethyl)-1,2,3,6-tetrahydropyridin-4-yl)-5-methylbenzoyl)piperidin-4-yl)methyl)piperazin-1-yl)-3-methyl-2-oxo-2,3-dihydro-1H-benzo[d]imidazol-1-yl)piperidine-2,6-dione] gave an Emax of under 20%. Work on CNc1nc(=O)n(-c2ccnc3c2cc(CN2CCC(c4c(F)cc(C(=O)N5CCC(CN6CCN(c7cc8c(cc7F)n(C7CCC(=O)NC7=O)c(=O)n8C)CC6)CC5)cc4F)CC2)n3C)cc1F (stereo not drawn) [Example 3u261, 3-(5-(4-((1-(3,5-difluoro-4-(1-((4-(5-fluoro-4-(methylamino)-2-oxopyrimidin-1 (2H)-yl)-1-methyl-1H-pyrrolo[2,3-b]pyridin-2-yl)methyl)piperidin-4-yl)benzoyl)piperidin-4-yl)methyl)piperazin-1-yl)-6-fluoro-3-methyl-2-oxo-2,3-dihydro-1H-benzo[d]imidazol-1-yl)piperidine-2,6-dione] yielded an Emax of under 20%. CNc1ccn(-c2ccnc3c2cc(CN2CCC(c4c(F)cc(C(=O)N5CCC(CN6CCN(c7ccc8c(c7)C7(CC7)C(=O)N8[C@H]7CCC(=O)NC7=O)CC6)CC5)cc4F)CC2)n3C)c(=O)c1 (single isomer, unassigned) [Example 3u151] was tested, and the Emax was 30 to 40%.

Same assay, conditions: HeLa LgBiT clone 4.14 HiBiT-STAT6, 4-24 h incubation; values given for compounds with >80% Emax; geometric mean; read-out: STAT6 degradation DC50
Work on CNc1c(F)cn(-c2ccnc3c2cc([C@H](C)N2CC=C(c4c(C)cc(C(=O)N5CCC(CN6CCN(Cc7ccc8c(c7)C7(CC7)C(=O)N8C7CCC(=O)NC7=O)C[C@@H]6C)CC5)cc4F)CC2)n3C)c(=O)c1F (stereo partly drawn) [Example 3u4, 3-(5′-(((S)-4-((1-(4-(1-((S)-1-(4-(3,5-difluoro-4-(methylamino)-2-oxopyridin-1 (2H)-yl)-1-methyl-1H-pyrrolo[2,3-b]pyridin-2-yl)ethyl)-1,2,3,6-tetrahydropyridin-4-yl)-3-fluoro-5-methyl-benzoyl)-piperidin-4-yl)methyl)-3-methylpiperazin-1-yl)methyl)-2′-oxospiro[cyclopropane-1,3′-indolin]-1′-yl)piperidine-2,6-dione] yielded a DC50 of 4 nM. With Cc1cc(C(=O)N2CCC(CN3CCN(Cc4ccc5c(c4)n(C)c(=O)n5C4CCC(=O)NC4=O)C[C@@H]3C)CC2)cc(F)c1C1=CCN(Cc2cc3c(-n4ccc5c(c4=O)CCN5)ccnc3n2C)CC1 (stereo partly drawn) [Example 3u23, 3-(5-(((S)-4-((1-(3-fluoro-5-methyl-4-(1-((1-methyl-4-(4-oxo-1,2,3,4-tetrahydro-5H-pyrrolo[3,2-c]pyridin-5-yl)-1H-pyrrolo[2,3-b]pyridin-2-yl)methyl)-1,2,3,6-tetrahydropyridin-4-yl)benzoyl)piperidin-4-yl)methyl)-3-methylpiperazin-1-yl)methyl)-3-methyl-2-oxo-2,3-dihydro-1H-benzo[d]imidazol-1-yl)piperidine-2,6-dione] the DC50 was 1.3 nM. CNc1ccn(-c2ccnc3c2cc(CN2CC=C(c4c(C)cc(C(=O)N5CCC(CN6CCN(Cc7ccc8c(c7)n(C)c(=O)n8C7CCC(=O)NC7=O)CC6)CC5)cc4F)CC2)n3C)c(=O)c1 (stereo not drawn) [Example 3u163, 3-(5-((4-((1-(3-fluoro-5-methyl-4-(1-((1-methyl-4-(4-(methylamino)-2-oxopyridin-1 (2H)-yl)-1H-pyrrolo[2,3-b]pyridin-2-yl)methyl)-1,2,3,6-tetrahydropyridin-4-yl)benzoyl)piperidin-4-yl)methyl)piperazin-1-yl)methyl)-3-methyl-2-oxo-2,3-dihydro-1H-benzo[d]imidazol-1-yl)piperidine-2,6-dione] showed a DC50 of 4.4 nM. Work on Cc1cc(C(=O)N2CCC(CN3CCN(Cc4ccc5c(c4)n(C4CC4)c(=O)n5C4CCC(=O)NC4=O)C[C@@H]3C)CC2)cc(F)c1C1=CCN([C@@H](C)c2cc3c(-n4ccc5c(c4=O)CCN5)ccnc3n2C)CC1 (stereo partly drawn) [Example 3u143, 3-(3-cyclopropyl-5-(((S)-4-((1-(3-fluoro-5-methyl-4-(1-((S)-1-(1-methyl-4-(4-oxo-1,2,3,4-tetrahydro-5H-pyrrolo[3,2-c]pyridin-5-yl)-1H-pyrrolo[2,3-b]pyridin-2-yl)ethyl)-1,2,3,6-tetrahydropyridin-4-yl)benzoyl)piperidin-4-yl)methyl)-3-methylpiperazin-1-yl)methyl)-2-oxo-2,3-dihydro-1H-benzo[d]imidazol-1-yl)piperidine-2,6-dione] yielded a DC50 of 0.7 nM. Cc1cc(C(=O)N2CCC(CN3CCN(Cc4cc5c(cc4F)n([C@@H]4CCC(=O)NC4=O)c(=O)n5C4CC4)CC3)CC2)cc(F)c1C1=CCN([C@@H](C)c2cc3c(-n4ccc5c(c4=O)CCN5)ccnc3n2C)CC1 (single isomer, unassigned) [Example 3u148] gave a DC50 of 2.7 nM. Compound CNc1ccn(-c2ccnc3c2cc([C@H](C)N2CCC(c4c(F)cc(C(=O)N5CCC(CN6CCN(Cc7ccc8c(c7)C(C)(C)C(=O)N8[C@H]7CCC(=O)NC7=O)C[C@@H]6C)CC5)cc4F)CC2)n3C)c(=O)c1 (single isomer, unassigned) [Example 3u81] has a DC50 of 0.8 nM. CNc1ccn(-c2ccnc3c2cc(CN2CCC(c4c(C)cc(C(=O)N5CCC(CN6CCN(Cc7ccc8c(c7)n(C)c(=O)n8C7CCC(=O)NC7=O)CC6)CC5)cc4F)CC2)n3C)c(=O)c1 (stereo not drawn) [Example 3u158, 3-(5-((4-((1-(3-fluoro-5-methyl-4-(1-((1-methyl-4-(4-(methylamino)-2-oxopyridin-1 (2H)-yl)-1H-pyrrolo[2,3-b]pyridin-2-yl)methyl)piperidin-4-yl)benzoyl)piperidin-4-yl)methyl)-piperazin-1-yl)methyl)-3-methyl-2-oxo-2,3-dihydro-1H-benzo[d]imidazol-1-yl)piperidine-2,6-dione] gave a DC50 of 24.1 nM. Work on CNc1ccn(-c2ccnc3c2cc([C@H](C)N2CC=C(c4c(C)cc(C(=O)N5CCC(CN6CCN(Cc7ccc8c(c7)C7(CC7)C(=O)N8C7CCC(=O)NC7=O)C[C@@H]6C)CC5)cc4F)CC2)n3C)c(=O)c1F (stereo partly drawn) [Example 3u114, 3-(5′-(((S)-4-((1-(3-fluoro-4-(1-((S)-1-(4-(3-fluoro-4-(methylamino)-2-oxopyridin-1 (2H)-yl)-1-methyl-1H-pyrrolo[2,3-b]pyridin-2-yl)ethyl)-1,2,3,6-tetrahydropyridin-4-yl)-5-methyl-benzoyl)piperidin-4-yl)methyl)-3-methylpiperazin-1-yl)methyl)-2′-oxospiro[cyclopropane-1,3′-indolin]-1′-yl)piperidine-2,6-dione] yielded a DC50 of 9.9 nM. With CNc1ccn(-c2ccnc3c2cc([C@H](C)N2CC=C(c4c(C)cc(C(=O)N5CCC(CN6CCN(Cc7ccc8c(c7)C(F)(F)C(=O)N8C7CCC(=O)NC7=O)CC6)CC5)cc4F)CC2)n3C)c(=O)c1 (stereo partly drawn) [Example 3u255, 3-(3,3-difluoro-5-((4-((1-(3-fluoro-5-methyl-4-(1-((S)-1-(1-methyl-4-(4-(methylamino)-2-oxopyridin-1 (2H)-yl)-1H-pyrrolo[2,3-b]pyridin-2-yl)ethyl)-1,2,3,6-tetrahydropyridin-4-yl)benzoyl)piperidin-4-yl)methyl)piperazin-1-yl)methyl)-2-oxoindolin-1-yl)piperidine-2,6-dione] the DC50 was 13.7 nM.
